From ChEMBL document CHEMBL1127884, “Inhibition of stromelysin-1 (MMP-3) by peptidyl phosphinic acids” (Bioorg Med Chem Lett, 1994)

What was measured:
[1] = biological target: T1, Interstitial collagenase (Homo sapiens) (UniProt P03956); assay: In vitro inhibition of human fibroblast collagenase at a 10 uM.
T1 sequence (whole entry): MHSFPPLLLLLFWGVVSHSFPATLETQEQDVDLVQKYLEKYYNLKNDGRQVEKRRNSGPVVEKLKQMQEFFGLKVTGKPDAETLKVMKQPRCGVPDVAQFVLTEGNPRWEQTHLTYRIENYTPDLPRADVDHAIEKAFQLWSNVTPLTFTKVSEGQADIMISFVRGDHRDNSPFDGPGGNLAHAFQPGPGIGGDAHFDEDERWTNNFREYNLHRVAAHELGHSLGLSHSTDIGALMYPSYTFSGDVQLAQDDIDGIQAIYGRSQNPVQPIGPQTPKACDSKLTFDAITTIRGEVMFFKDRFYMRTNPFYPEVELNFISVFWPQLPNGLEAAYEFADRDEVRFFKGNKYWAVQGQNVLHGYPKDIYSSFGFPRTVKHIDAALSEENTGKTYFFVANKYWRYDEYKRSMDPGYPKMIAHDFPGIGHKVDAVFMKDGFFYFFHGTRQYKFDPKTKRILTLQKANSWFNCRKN

Stromelysin-1 [2] = biological target: T2, Stromelysin-1 (Homo sapiens, UniProt P08254); assay: In vitro inhibition of human recombinant stromelysin-1.
Target sequence in this assay (P08254 whole entry): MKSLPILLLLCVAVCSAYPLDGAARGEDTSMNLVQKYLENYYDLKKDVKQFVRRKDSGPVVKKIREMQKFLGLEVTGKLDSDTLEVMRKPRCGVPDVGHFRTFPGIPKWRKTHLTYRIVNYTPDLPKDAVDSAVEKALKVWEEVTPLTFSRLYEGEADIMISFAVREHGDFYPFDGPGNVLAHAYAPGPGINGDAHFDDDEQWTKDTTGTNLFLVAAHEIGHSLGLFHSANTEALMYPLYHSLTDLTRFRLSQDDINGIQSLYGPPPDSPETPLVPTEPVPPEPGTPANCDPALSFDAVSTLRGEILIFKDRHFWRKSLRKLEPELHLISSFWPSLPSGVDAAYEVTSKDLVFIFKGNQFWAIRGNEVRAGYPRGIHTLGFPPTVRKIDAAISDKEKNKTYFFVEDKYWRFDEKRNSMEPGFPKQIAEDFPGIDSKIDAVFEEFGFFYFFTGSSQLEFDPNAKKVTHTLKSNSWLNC

Interstitial collagenase = biological target: T3, Interstitial collagenase (Homo sapiens, UniProt P03956); assay: In vitro inhibition of human fibroblast collagenase.
T3 sequence (P03956 whole entry): T1 sequence (whole entry)

Stromelysin-1 [3] = biological target: T2, Stromelysin-1; assay: In vitro inhibition of human recombinant stromelysin-1 at a concentration of 5 uM.
Target sequence in this assay (P08254 100-477 limits assumed): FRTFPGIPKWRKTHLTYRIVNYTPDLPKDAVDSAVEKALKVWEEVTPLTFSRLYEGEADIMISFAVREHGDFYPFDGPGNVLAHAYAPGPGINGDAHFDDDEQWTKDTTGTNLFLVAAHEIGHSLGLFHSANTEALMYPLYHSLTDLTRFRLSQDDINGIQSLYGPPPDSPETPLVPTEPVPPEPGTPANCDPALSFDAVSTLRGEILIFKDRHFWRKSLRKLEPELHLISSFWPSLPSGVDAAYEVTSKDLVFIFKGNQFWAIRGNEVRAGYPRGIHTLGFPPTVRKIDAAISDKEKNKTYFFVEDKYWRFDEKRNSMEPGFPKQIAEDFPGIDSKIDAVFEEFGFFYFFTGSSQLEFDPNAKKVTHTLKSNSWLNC

SMILES | inhibition [1] | Ki (Stromelysin-1 [2]) | Ki (Interstitial collagenase) | inhibition (Stromelysin-1 [3])
CC(=O)N[C@@H](C)C(=O)N[C@@H](C)P(=O)(O)CC(CCc1ccccc1)C(=O)N[C@@H](CC(C)C)C(=O)Nc1ccccc1 (stereo partly specified) | 0% | 340 nM | – | –
CC(=O)N[C@@H](C)C(=O)N[C@@H](C)C(=O)N[C@@H](C)P(=O)(O)CC(CCc1ccccc1)C(=O)N[C@@H](CC(C)C)C(=O)Nc1ccccc1 (stereo partly specified) | 32% | 42 nM | – | –
CC(C)C[C@H](NC(=O)C(CCc1ccccc1)CP(=O)(O)CNC(=O)[C@H](C)NC(=O)C1CCCN1C(=O)c1ccccc1)C(=O)Nc1ccccc1 (stereo partly specified) | 39% | 24 nM | – | –
CC(C)C[C@H](NC(=O)C(CCc1ccccc1)CP(=O)(O)[C@H](C)NC(=O)CN1C(=O)c2ccccc2C1=O)C(=O)Nc1ccccc1 (stereo partly specified) | 0% | 2400 nM | – | –
CC(C)C[C@H](NC(=O)C(CCc1ccccc1)CP(=O)(O)CNC(=O)[C@H](Cc1ccc(O)cc1)NC(=O)OCc1ccccc1)C(=O)Nc1ccccc1 (stereo partly specified) | 0% | 560 nM | – | –
CC(=O)N1CCCC1C(=O)N[C@@H](C)P(=O)(O)CC(CCc1ccccc1)C(=O)N[C@@H](CC(C)C)C(=O)Nc1ccccc1 (stereo partly specified) | 0% | – | – | 57%
CC(=O)N1CCCC1C(=O)N[C@@H](C)C(=O)NCP(=O)(O)CC(CCc1ccccc1)C(=O)N[C@@H](CC(C)C)C(=O)Nc1ccccc1 (stereo partly specified) | 60% | 15 nM | – | –
CC(C)C[C@H](NC(=O)C(CCc1ccccc1)CP(=O)(O)[C@H](C)NC(=O)[C@H](C)NC(=O)C1CCCN1C(=O)c1ccccc1)C(=O)Nc1ccccc1 (stereo partly specified) | – | 20 nM | 5100 nM | –
CC(C)C[C@H](NC(=O)C(CCc1ccccc1)CP(=O)(O)CNC(=O)[C@H](Cc1ccccc1)NC(=O)OCc1ccccc1)C(=O)Nc1ccccc1 (stereo partly specified) | 4% | 710 nM | – | –
CC(=O)N1CCCC1C(=O)N[C@@H](C)C(=O)N[C@@H](C)P(=O)(O)CC(CCc1ccccc1)C(=O)N[C@@H](CC(C)C)C(=O)Nc1ccccc1 (stereo partly specified) | – | 6.1 nM | 2900 nM | –

More lines, now with the values ahead:

inhibition [1] | Ki (Stromelysin-1 [2]) | Ki (Interstitial collagenase) | inhibition (Stromelysin-1 [3]) | SMILES
4% | 1400 nM | – | – | CC(C)C[C@H](NC(=O)C(CCc1ccccc1)CP(=O)(O)CNC(=O)CNC(=O)OCc1ccccc1)C(=O)Nc1ccccc1 (stereo partly specified)
0% | 1900 nM | – | – | CC(C)C[C@H](NC(=O)C(CCc1ccccc1)CP(=O)(O)CNCc1ccccc1)C(=O)Nc1ccccc1 (stereo partly specified)
– | 280 nM | 15900 nM | – | CC(C)C[C@H](NC(=O)C(CCc1ccccc1)CP(=O)(O)CNC(=O)OCc1ccccc1)C(=O)Nc1ccccc1 (stereo partly specified)
14% | 600 nM | – | – | CC(C)C[C@H](NC(=O)C(CCc1ccccc1)CP(=O)(O)CNC(=O)[C@H](CC(N)=O)NC(=O)OCc1ccccc1)C(=O)Nc1ccccc1 (stereo partly specified)
7% | 1900 nM | – | – | CC(C)C[C@H](NC(=O)C(CCc1ccccc1)CP(=O)(O)[C@H](C)NCc1ccccc1)C(=O)Nc1ccccc1 (stereo partly specified)
– | 330 nM | 7500 nM | – | CC(C)C[C@H](NC(=O)C(CCc1ccccc1)CP(=O)(O)[C@H](C)NC(=O)OCc1ccccc1)C(=O)Nc1ccccc1 (stereo partly specified)
12% | 370 nM | – | – | CC(C)C[C@H](NC(=O)C(CCc1ccccc1)CP(=O)(O)CNC(=O)[C@H](CCC(=O)O)NC(=O)OCc1ccccc1)C(=O)Nc1ccccc1 (stereo partly specified)
0% | 940 nM | – | – | CC(C)C[C@H](NC(=O)C(CCc1ccccc1)CP(=O)(O)CNC(=O)Cc1ccccc1)C(=O)Nc1ccccc1 (stereo partly specified)
18% | 4600 nM | – | – | CC(C)C[C@H](NC(=O)C(CCc1ccccc1)CP(=O)(O)CNC(=O)[C@H](CCCCN)NC(=O)OCc1ccccc1)C(=O)Nc1ccccc1 (stereo partly specified)
9% | 210 nM | – | – | CC(C)C[C@H](NC(=O)C(CCc1ccccc1)CP(=O)(O)CNC(=O)[C@H](Cc1c[nH]cn1)NC(=O)OCc1ccccc1)C(=O)Nc1ccccc1 (stereo partly specified)
0% | 1300 nM | – | – | CCCC[C@H](NC(=O)OCc1ccccc1)C(=O)NCP(=O)(O)CC(CCc1ccccc1)C(=O)N[C@@H](CC(C)C)C(=O)Nc1ccccc1 (stereo partly specified)
0% | 280 nM | – | – | CC(C)C[C@H](NC(=O)C(CCc1ccccc1)CP(=O)(O)CNC(=O)[C@H](C)NC(=O)OCc1ccccc1)C(=O)Nc1ccccc1 (stereo partly specified)
14% | 410 nM | – | – | CC(C)CC(NC(=O)C(CCc1ccccc1)CP(=O)(O)CNC(=O)CN1C(=O)c2ccccc2C1=O)C(=O)Nc1ccccc1 (stereo unspecified)
